{"source": "patent US5885968A", "about": "“Triantennary cluster glycosides, their preparation and use” (Rijksuniversiteit te Leiden, priority 1992, dated 1999)", "key": {"[1]": {"test_system": "rats", "assay": "In vivo fate of lipoprotein (a) charged with glycolipid in rats", "parameters": "species or system rat", "details": "for Contribution to hepatic uptake of Lp(a), EC (endothelial cells) / Contribution to hepatic uptake of Lp(a), KC (Kupffer cells): 125I-Lp(a) 50 μg + 50 μg glycolipid, 10 min after injection, mean ± s.e.m., 3 experiments", "source_text": "The so prepared TG(20 Å)-chol (formula 20): [drawing 24] can also be used to direct apo(a) to the hepatic parenchymal cell. High levels of lp(a) are correlated with the occurence of coronary and vascular diseases. To date, an adequate clinical therapy to alleviate the pathogenesis is not available. To investigate whether TG(20 Å)C can be used to stimulate the hepatic uptake and processing of lp(a) this, isolated lp(a) was charged with TG(20 Å)-chol according to a procedure that is known per se and the in vivo behaviour of the particle was studied. Lp(a) (50 μg) in PBS was incubated at 20° C. for 30 min with 0, 5, 15 and 50 μg TG(20 Å) (-chol). This charge led to a changed behaviour of the apo(a) after intravenous injection into rats. This is illustrated in FIG. 8. […] On account of the high […] of TG(20 Å)-chol, very rapidly an exchange of this compound occurs between lp(a) and other lipoproteins and lipid compartments. This then leads to a stabilization of the lp(a) level in the bloodstream after a few minutes.\n^125 I-Lp(a) (50 μg) was mixed with 50 μg of TG(20 Å)C or TG(4 Å)C in 500 μl PBS. After 30 min at room temperature, the mixtures were injected into rats at a dose of 50 μg of apolipoprotein/kg body weight. Ten minutes after injection, parenchymal, endothelial and Kupffer cells were isolated from the liver and counted for radioactivity. Values are expressed as 10-3.% of the injected dose per mg of cellular protein and are means of 3 experiments ± s.e.m."}, "[2]": {"details": "cited from earlier work"}, "[3]": {"test_system": "rats", "assay": "Biliary secretion in catheterized rats after intravenous injection", "format": "in vivo, rat", "details": "0.56 mg i.v., FIG. 5", "method": "Intravenous injection of TG(20 Å)C (0.56 mg, dissolved in phosphate buffered saline) in rats, provided with catheters in duodenum, bile-duct and heart vene, also enhances the biliary secretion of bile acids from the liver leaving the biliary flow and the biliary secretion of cholesterol unaltered. Apparently, the TG(20 Å)C-induced increase in the uptake of lipoprotein-derived cholesterol is efficiently coupled to bile-acid secretion in rats. This might have important implications for potential application of TG(20 Å)C as a hypocholesterolemic therapeutic. (See FIG. 5.)"}, "[4]": {"test_system": "rats", "assay": "Serum cholesterol lowering after intravenous injection in rats", "format": "in vivo, rat", "method": "This was verified as follows. Male rats (250-300 g) were anesthetized by means of ether, whereafter 500 gl PBS, having dissolved therein 0.56 mg, 0.18 mg, 0.056 mg or 0 mg TG(20 Å)-chol (formula 20) or 0.56 mg tris-glu-chol (formula 21): [drawing 19] was injected into the vena penis. At the times indicated in FIG. 3, blood samples of 300 μl were taken by means of orbital puncture. The blood samples were centrifuged (5 min; 1500 g) and the serum was used for a cholesterol assay by means of the CHOD-PAP kit of Boehringer Mannheim. 24 Hours after injection the rat was bled. The blood was centrifuged whereafter the serum was pipeted. Then the serum was subjected to gradient density ultracentrifugation and the various lipoprotein fractions were isolated: HDL (1.21<d<1.05), LDL (1.050<d<1.019), IDL (1.019<d<1.006) and VLDL (d<1.006). Finally, the total cholesterol concentrations of these lipoprotein fractions were assayed by means of the CHOD-PAP kit."}, "[5]": {"test_system": "rats", "assay": "In vivo behaviour of LDL charged with glycolipid after intravenous injection into rats", "parameters": "species or system rat", "source_text": "The so prepared compound TG(20 Å)-chol (formula 20): [drawing 22] can also be used to direct LDL to the hepatic parenchymal cell. To investigate this, isolated low-density lipoprotein was charged with TG(20 Å)-chol according to a procedure that is known per se and the in vivo behaviour of the particle was studied. […] This then leads to a stabilization of the LDL level in the bloodstream after a few minutes. Accumulation of TG(20 Å)-chol in LDL, then, changes the physiological rate of LDL. The complex is taken up by the liver via a galactose-specific route. […] Now it can be verified whether the complex is taken up by the parenchymal or by the Kupffer cell on the liver. […] This is an indication that charging with this compound leads to liver uptake via the asialoglycoprotein receptor in the parenchymal cell."}}, "data": [{"compound": "CC(C)CCC[C@@H](C)[C@H]1CC[C@H]2[C@@H]3CC=C4C[C@@H](OC(=O)CCC(=O)NCC(=O)NC(CO[C@@H]5O[C@H](CO)[C@H](O)[C@H](O)[C@H]5O)(CO[C@@H]5O[C@H](CO)[C@H](O)[C@H](O)[C@H]5O)CO[C@@H]5O[C@H](CO)[C@H](O)[C@H](O)[C@H]5O)CC[C@]4(C)[C@H]3CC[C@]12C", "note": "[TG(4 Å)C, reference compound]", "values": [{"measurement": "Contribution to hepatic uptake of Lp(a), EC (endothelial cells)", "setting": "[1]; rats", "result": "10.4 ± 3", "unit": "%"}, {"measurement": "Contribution to hepatic uptake of Lp(a), KC (Kupffer cells)", "setting": "[1]; rats", "result": "80.3 ± 3", "unit": "%"}, {"measurement": "Liver cell type location of charged lp(a) (in words)", "setting": "[1]; rats", "result": "mainly located in the Kupffer cell"}]}, {"compound": "CC(C)CCC[C@@H](C)[C@H]1CC[C@H]2[C@@H]3CC=C4C[C@@H](OC(=O)CCC(=O)NCC(=O)NC(CO[C@@H]5O[C@H](CO)[C@H](O)[C@H](O)[C@H]5O)(CO[C@@H]5O[C@H](CO)[C@H](O)[C@H](O)[C@H]5O)CO[C@@H]5O[C@H](CO)[C@H](O)[C@H](O)[C@H]5O)CC[C@]4(C)[C@H]3CC[C@]12C", "note": "[tris-gal-chol]", "values": [{"measurement": "Removal of cholesterol from the bloodstream and liver uptake", "setting": "[2]", "result": "capable of irreversibly removing cholesterol from the bloodstream and inducing cholesterol uptake by the liver"}, {"measurement": "Potency as hypolipidemic agent", "setting": "[2]; high doses necessary", "result": "low"}, {"measurement": "Route of LDL removal after injection", "setting": "[2]; in vivo", "result": "via the Fuc/Gal receptors on hepatic Kupffer cells"}]}, {"compound": "CC(C)CCC[C@@H](C)[C@H]1CC[C@H]2[C@@H]3CC=C4C[C@@H](OC(=O)CNC(=O)CCCCC(=O)NCC(=O)NC(COCOCCOCCOCCOCCO[C@@H]5O[C@H](CO)[C@H](O)[C@H](O)[C@H]5O)(COCOCCOCCOCCOCCO[C@@H]5O[C@H](CO)[C@H](O)[C@H](O)[C@H]5O)COCOCCOCCOCCOCCO[C@@H]5O[C@H](CO)[C@H](O)[C@H](O)[C@H]5O)CC[C@]4(C)[C@H]3CC[C@]12C", "note": "[TG(20 Å)-chol, N,N-[tris-O-(3,6,9-trioxaundecanyl-β-D-galactopyranosyl)methoxymethyl]methyl-N^α -(1-(6-(5-cholesten-3β-yloxy)glycyl)adipyl)glycinamide]", "values": [{"measurement": "Effect of N-acetyl-galactosamine preinjection on induced hepatic uptake of 125I-lp(a)", "setting": "[1]; 150 mg N-acetyl-galactosamine, rat, data not shown", "result": "can be inhibited"}, {"measurement": "Contribution to hepatic uptake of Lp(a), EC (endothelial cells)", "setting": "[1]; rats", "result": "8.3 ± 2", "unit": "%"}, {"measurement": "Contribution to hepatic uptake of Lp(a), KC (Kupffer cells)", "setting": "[1]; rats", "result": "37.3 ± 9", "unit": "%"}, {"measurement": "Clearance from bloodstream and liver uptake of charged apo(a)/lp(a) particles", "setting": "[1]; Lp(a) 50 μg charged with 5, 15, 50 μg, i.v. rats, FIG. 8", "result": "cleared and incorporated into the liver much faster"}, {"measurement": "Biliary flow", "setting": "[3]", "result": "unaltered"}, {"measurement": "Biliary secretion of bile acids", "setting": "[3]", "result": "enhances"}, {"measurement": "Biliary secretion of cholesterol", "setting": "[3]", "result": "unaltered"}, {"measurement": "Cholesterol level 24 hours after single administration", "setting": "[4]; 0.56 mg, 24 hours", "result": "has not returned to the control value"}, {"measurement": "LDL level", "setting": "[4]; 24 h after injection", "result": "likewise lowered"}, {"measurement": "Concentrations of the other lipoproteins", "setting": "[4]; 24 h after injection (IDL, VLDL)", "result": "not significantly affected"}, {"measurement": "Serum HDL level", "setting": "[4]; 24 h after injection, FIG. 4", "result": "decreases dose-dependently and significantly"}, {"measurement": "Total serum cholesterol level", "setting": "[4]; injection into vena penis, 0.056-0.56 mg, FIG. 3", "result": "decreases"}, {"measurement": "Increase in potency compared with tris-gal-chol", "setting": "[4]; serum cholesterol lowering, comparison with ref 15", "result": "≥ 25", "unit": "factor"}, {"measurement": "Effect of asialofetuin preinjection on uptake of charged LDL", "setting": "[5]; 50 mg/kg asialofetuin 1 min before injection", "result": "significant inhibition of the uptake by the liver parenchymal cell"}, {"measurement": "Clearance from bloodstream and liver uptake of charged 125I-LDL", "setting": "[5]; LDL 50 μg charged with 5, 15, 50 μg, i.v. rats, FIG. 6", "result": "cleared and incorporated into the liver much faster"}, {"measurement": "Liver cell type location of charged LDL taken up", "setting": "[5]; rats, FIG. 7", "result": "largely located in the parenchymal cell"}]}]}
